System: rats
Experiment: 4-hour single-inhalation exposure test (OECD Guideline No. 436)
Type: in vivo
Procedure: A 4-hour single-inhalation exposure test was performed on rats by using a mist of HCFO-1223xd according to the OECD Guideline No. 436.

## FC(F)(F)C(Cl)=CCl [HCFO-1223xd, 1,2-dichloro-3,3,3-trifluoropropene]
4-hour single inhalation, mist at a concentration of 5 mg/L
  death of rats on inhalation exposure: No death of the rats was observed
4-hour single-inhalation exposure, OECD Guideline No. 436
  acute toxicity: low acute toxicity

Reference: US11981883B2, “Composition containing 1,2-dichloro-3,3,3-trifluoropropene” (DAIKIN INDUSTRIES, LTD., priority 2018, dated 2024)
